Biological target: T1, recombinant murine Aurora A enzyme (Mus musculus, UniProt P97477)
T1 construct: hexahistidine (His6) (N); made in house; host or cells: insect cells, baculovirus (Bac-to-Bac, Invitrogen)
Assay: Aurora A DELFIA Kinase Assay
Format: biochemical
Details: mouse Aurora A, 250 μM ATP; threshold less than or equal to 100 nM; read-out: IC50

T1 sequence (P97477 whole entry): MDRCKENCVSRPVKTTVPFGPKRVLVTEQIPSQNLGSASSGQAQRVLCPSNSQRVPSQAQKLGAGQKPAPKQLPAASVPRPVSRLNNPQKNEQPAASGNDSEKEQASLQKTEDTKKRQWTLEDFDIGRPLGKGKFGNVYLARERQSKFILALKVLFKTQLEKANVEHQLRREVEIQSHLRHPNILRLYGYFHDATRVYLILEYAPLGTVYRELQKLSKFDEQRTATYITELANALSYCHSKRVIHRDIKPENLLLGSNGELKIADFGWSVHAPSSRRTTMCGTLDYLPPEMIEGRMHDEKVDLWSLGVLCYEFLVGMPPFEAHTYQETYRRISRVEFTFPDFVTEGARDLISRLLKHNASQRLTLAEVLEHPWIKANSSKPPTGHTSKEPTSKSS

IC50, ≤ 100 nM:
COc1cccc(F)c1C1=NCc2cnc(Nc3ccc(C(=O)N4CC(C)NC(C)C4)cc3)nc2-c2ccc(Cl)cc21 (stereo not drawn) [Compound I-177, 9-Chloro-N-{4-[(3,5-dimethylpiperazin-1-yl)carbonyl]phenyl}-7-(2-fluoro-6-methoxyphenyl)-5H-pyrimido[5,4-d][2]benzazepin-2-amine]
O=C(Nc1ccc(Nc2ncc3c(n2)-c2ccc(Cl)cc2C(c2c(F)cccc2F)=NC3)cc1)C1CCNCC1 [Compound I-319, N-(4-{[9-chloro-7-(2,6-difluorophenyl)-5H-pyrimido[5,4-d][2]benzazepin-2-yl]amino}phenyl)piperidine-4-carboxamide]
CNC1CCCN(C(=O)c2ccc(Nc3ncc4c(n3)-c3ccc(Cl)cc3C(c3c(F)cccc3F)=NC4)cc2)C1 (stereo not drawn) [Compound I-253, 9-chloro-7-(2,6-difluorophenyl)-N-(4-{[3-(methylamino)piperidin-1-yl]carbonyl}phenyl)-5H-pyrimido[5,4-d][2]benzazepin-2-amine]
CNC(=O)c1ccc2c(c1)C(c1c(F)cccc1F)=NCc1cnc(Nc3ccc(C(=O)N4CC(C)NC(C)C4)cc3)nc1-2 (stereo not drawn) [Compound I-376, 7-(2,6-difluorophenyl)-2-({4-[(3,5-dimethylpiperazin-1-yl)carbonyl]phenyl}amino)-N-methyl-5H-pyrimido[5,4-d][2]benzazepine-9-carboxamide]
CN(C)C1CCN(C(=O)c2cccc(Nc3ncc4c(n3)-c3ccc(Cl)cc3C(c3c(F)cccc3F)=NC4)c2)CC1 [Compound I-205, 9-chloro-7-(2,6-difluorophenyl)-N-(3-{[4-(dimethylamino)piperidin-1-yl]carbonyl}phenyl)-5H-pyrimido[5,4-d][2]benzazepin-2-amine]
Nc1ccc(Nc2ncc3c(n2)-c2ccc(Cl)cc2C(c2c(F)cccc2F)=NC3)cc1 [Compound I-217, N-[9-chloro-7-(2,6-difluorophenyl)-5H-pyrimido[5,4-d][2]benzazepin-2-yl]benzene-1,4-diamine]
CN1CCN(C(=O)Nc2ccc(Nc3ncc4c(n3)-c3ccc(Cl)cc3C(c3c(F)cccc3F)=NC4)cc2)CC1 [Compound I-280, 4-Methyl-piperazine-1-carboxylic acid {4-[9-chloro-7-(2,6-difluoro-phenyl)-5H-benzo[c]pyrimido[4,5-e]azepin-2-ylamino]-phenyl}-amide]
C[C@H]1CN(C(=O)c2ccc(Nc3ncc4c(n3)-c3ccc(Cl)cc3C(c3c(F)cccc3F)=NC4)cc2)CCN1 [Compound I-191, {4-[9-Chloro-7-(2,6-difluoro-phenyl)-5H-benzo[c]pyrimido[4,5-e]azepin-2-ylamino]-phenyl}-(3(S)-methyl-piperazin-1-yl)-methanone]
OC1CN=C(c2ccc(Nc3ncc4c(n3)-c3ccc(Cl)cc3C(c3c(F)cccc3F)=NC4)cc2)NC1 (stereo not drawn) [Compound I-285, 2-(4-{[9-chloro-7-(2,6-difluorophenyl)-5H-pyrimido[5,4-d][2]benzazepin-2-yl]amino}phenyl)-1,4,5,6-tetrahydropyrimidin-5-ol]
CNC1CCN(C(=O)c2ccc(Nc3ncc4c(n3)-c3ccc(Cl)cc3C(c3c(F)cccc3Cl)=NC4)cc2)C1 (stereo not drawn) [Compound I-327, 9-chloro-7-(2-chloro-6-fluorophenyl)-N-(4-{[3-(methylamino)pyrrolidin-1-yl]carbonyl}phenyl)-5H-pyrimido[5,4-d][2]benzazepin-2-amine]
CN(CCCN)C(=O)c1ccc(Nc2ncc3c(n2)-c2ccc(Cl)cc2C(c2ccccc2F)=NC3)cc1 [Compound I-117, N-(3-Amino-propyl)-4-[9-chloro-7-(2-fluoro-phenyl)-5H-benzo[c]pyrimido[4,5-e]azepin-2-ylamino]-N-methyl-benzamide]
COc1ccc2c(c1)C(c1ccccc1F)=NCc1cnc(Nc3ccc(C(=O)N4CCC(N(C)C)C4)cc3)nc1-2 (stereo not drawn) [Compound I-93, (3-Dimethylamino-pyrrolidin-1-yl)-{4-[7-(2-fluoro-phenyl)-9-methoxy-5H-benzo[c]pyrimido[4,5-e]azepin-2-ylamino]-phenyl}-methanone]
CN1CCN(C(=O)Cc2ccc(Nc3ncc4c(n3)-c3ccc(Cl)cc3C(c3ccccc3F)=NC4)cc2)CC1 [Compound I-145, 2-{4-[9-Chloro-7-(2-fluoro-phenyl)-5H-benzo[c]pyrimido[4,5-e]azepin-2-ylamino]-phenyl}-1-(4-methyl-piperazin-1-yl)-ethanone]
CN1CCC(N(C)C(=O)c2ccc(Nc3ncc4c(n3)-c3ccc(Cl)cc3C(c3ccccc3F)=NC4)cc2)CC1 [Compound I-128, 4-[9-Chloro-7-(2-fluoro-phenyl)-5H-benzo[c]pyrimido[4,5-e]azepin-2-ylamino]-N-methyl-N-(1-methyl-piperidin-4-yl)-benzamide]
O=C(NCCN1CCOCC1)c1ccc(Nc2ncc3c(n2)-c2ccc(Cl)cc2C(c2ccccc2F)=NC3)cc1 [Compound I-29, 4-[9-Chloro-7-(2-fluoro-phenyl)-5H-benzo[c]pyrimido[4,5-e]azepin-2-ylamino]-N-(2-morpholin-4-yl-ethyl)-benzamide]
CC1CN(C(=O)c2ccc(Nc3ncc4c(n3)-c3ccc(Cl)cc3C(c3c(F)cccc3F)=NC4)cc2)CC(C)N1 (stereo not drawn) [Compound I-175, 9-Chloro-7-(2,6-difluorophenyl)-N-{4-[(3,5-dimethylpiperazin-1-yl)carbonyl]phenyl}-5H-pyrimido[5,4-d][2]benzazepin-2-amine]
CNC1CCN(C(=O)c2ccc(Nc3ncc4c(n3)-c3ccc(Cl)cc3C(c3ccccc3OC)=NC4)cc2)C1 (stereo not drawn) [Compound I-332, 9-chloro-7-(2-methoxyphenyl)-N-(4-{[3-(methylamino)pyrrolidin-1-yl]carbonyl}phenyl)-5H-pyrimido[5,4-d][2]benzazepin-2-amine]
CC(=O)c1ccc(Nc2ncc3c(n2)-c2ccc(Cl)cc2C(c2c(F)cccc2F)=NC3)cc1 [Compound I-337, 1-(4-{[9-chloro-7-(2,6-difluorophenyl)-5H-pyrimido[5,4-d][2]benzazepin-2-yl]amino}phenyl)ethanone]
COc1cccc(F)c1C1=NCc2cnc(Nc3ccc(C(=O)N(C)CCN(C)C)cc3)nc2-c2ccc(Cl)cc21 [Compound I-255, 4-{[9-chloro-7-(2-fluoro-6-methoxyphenyl)-5H-pyrimido[5,4-d][2]benzazepin-2-yl]amino}-N-[2-(dimethylamino)ethyl]-N-methylbenzamide]
CNC1CCN(C(=O)c2ccc(Nc3ncc4c(n3)-c3ccc(Cl)cc3C(c3ccccn3)=NC4)cc2)C1 (stereo not drawn) [Compound I-315, 9-chloro-N-(4-{[3-(methylamino)pyrrolidin-1-yl]carbonyl}phenyl)-7-pyridin-2-yl-5H-pyrimido[5,4-d][2]benzazepin-2-amine]
Cc1ccc2c(c1)C(c1ccccc1F)=NCc1cnc(Nc3ccc(C(=O)NCCN4CCOCC4)cc3)nc1-2 [Compound I-148, 4-[7-(2-Fluoro-phenyl)-9-methyl-5H-benzo[c]pyrimido[4,5-e]azepin-2-ylamino]-N-(2-morpholin-4-yl-ethyl)-benzamide]
CC1CN(C(=O)c2ccc(Nc3ncc4c(n3)-c3ccc(Cl)cc3C(c3ccccc3F)=NC4)cc2Cl)CCN1 (stereo not drawn) [Compound I-214, 9-chloro-N-{3-chloro-4-[(3-methylpiperazin-1-yl)carbonyl]phenyl}-7-(2-fluorophenyl)-5H-pyrimido[5,4-d][2]benzazepin-2-amine]
O=C(O)c1ccc(Nc2ncc3c(n2)-c2ccc(C(=O)O)cc2C(c2ccccc2F)=NC3)cc1 [Compound I-249, 2-[(4-carboxyphenyl)amino]-7-(2-fluorophenyl)-5H-pyrimido[5,4-d][2]benzazepine-9-carboxylic acid]
CC1CN(C(=O)c2cccc(Nc3ncc4c(n3)-c3ccc(Cl)cc3C(c3c(F)cccc3F)=NC4)c2)CC(C)N1 (stereo not drawn) [Compound I-222, 9-chloro-7-(2,6-difluorophenyl)-N-{3-[(3,5-dimethylpiperazin-1-yl)carbonyl]phenyl}-5H-pyrimido[5,4-d][2]benzazepin-2-amine]
CN(CCN)C(=O)c1ccc(Nc2ncc3c(n2)-c2ccc(Cl)cc2C(c2ccccc2F)=NC3)cc1 [Compound I-2, N-(2-Amino-ethyl)-4-[9-chloro-7-(2-fluoro-phenyl)-5H-benzo[c]pyrimido[4,5-e]azepin-2-ylamino]-N-methyl-benzamide]
COc1ccc(Nc2ncc3c(n2)-c2ccc(Cl)cc2C(c2ccccc2Cl)=NC3)cc1OC [Compound I-73, [9-Chloro-7-(2-chloro-phenyl)-5H-benzo[c]pyrimido[4,5-e]azepin-2-yl]-(3,4-dimethoxy-phenyl)-amine]
CC1CN(C(=O)c2ccc(Nc3ncc4c(n3)-c3ccc(Cl)cc3C(c3c(F)cccc3Cl)=NC4)cc2)CCN1 (stereo not drawn) [Compound I-323, 9-chloro-7-(2-chloro-6-fluorophenyl)-N-{4-[(3-methylpiperazin-1-yl)carbonyl]phenyl}-5H-pyrimido[5,4-d][2]benzazepin-2-amine]
CC1CN(C(=O)c2ccc(Nc3ncc4c(n3)-c3ccc(Cl)cc3C(c3c(F)cccc3Cl)=NC4)cc2)CC(C)N1 (stereo not drawn) [Compound I-324, 9-chloro-7-(2-chloro-6-fluorophenyl)-N-{4-[(3,5-dimethylpiperazin-1-yl)carbonyl]phenyl}-5H-pyrimido[5,4-d][2]benzazepin-2-amine]
CN(C)C1CN(C(=O)c2ccc(Nc3ncc4c(n3)-c3ccc(Cl)cc3C(c3c(F)cccc3F)=NC4)cc2)C1 [Compound I-180, 9-Chloro-7-(2,6-difluorophenyl)-N-(4-{[3-(dimethylamino)azetidin-1-yl]carbonyl}phenyl)-5H-pyrimido[5,4-d][2]benzazepin-2-amine]
COc1cccc(F)c1C1=NCc2cnc(Nc3ccc(C(=O)N4CCCC(N)C4)cc3)nc2-c2ccc(Cl)cc21 (stereo not drawn) [Compound I-262]
